Laboratory results as given in ChEMBL document CHEMBL2062480, “Semi-synthesis and anti-tumor evaluation of novel 25-hydroxyprotopanaxadiol derivatives” (Eur J Med Chem, 2012).

What was measured:
[1] = system: MCF7; test: Antiproliferative activity against human MCF7 cells after 48 hrs by MTT assay; type: functional, cell-based; settings: for IC50: MCF7, 48 h
[2] = system: A549; test: Antiproliferative activity against human A549 cells after 48 hrs by MTT assay; type: functional, cell-based; settings: A549, 48 h
[3] = system: LoVo; test: Antiproliferative activity against human LoVo cells after 48 hrs by MTT assay; type: functional, cell-based
[4] = Antiproliferative activity against human IOSE-144 cells after 48 hrs by MTT assay; type: cell-based; settings: IOSE-144, 48 h
[5] = system: MCF7; test: Antiproliferative activity against human MCF7 cells assessed as cell viability at 30 uM after 48 hrs by MTT assay; type: functional; settings: MCF7, 48 h, read-out: Activity

SMILES | IC50 [1] [µM] | IC50 [2] [µM] | IC50 [3] [µM] | IC50 [4] [µM] | viability at 30 µM [5] [%] | Activity [1]
CCC(=O)O[C@H]1CC[C@]2(C)[C@H]3C[C@@H](OC(=O)CC)[C@@H]4[C@@H]([C@](C)(O)CCCC(C)(C)O)CC[C@@]4(C)[C@]3(C)CC[C@H]2C1(C)C | 20.6 | 14.9 | 45.3 | > 100 |  | 
CCCCCCCCCCCC(=O)O[C@H]1CC[C@]2(C)[C@H]3C[C@@H](O)[C@@H]4[C@@H]([C@](C)(O)CCCC(C)(C)O)CC[C@@]4(C)[C@]3(C)CC[C@H]2C1(C)C | > 100 | > 100 | > 100 | > 100 |  | 
O=c1[nH]cc(F)c(=O)[nH]1 [FLUOROURACIL] | 16.2 | 12.8 | 3.3 | 25.6 | 42.5 | 
CCCCCCCCCC(=O)O[C@H]1CC[C@]2(C)[C@H]3C[C@@H](O)[C@@H]4[C@@H]([C@](C)(O)CCCC(C)(C)O)CC[C@@]4(C)[C@]3(C)CC[C@H]2C1(C)C | > 100 | > 100 | > 50 | > 100 |  | 
CC(C)(O)CCC[C@@](C)(O)[C@H]1CC[C@]2(C)[C@@H]1[C@H](OC=O)C[C@@H]1[C@@]3(C)CC[C@H](OC=O)C(C)(C)[C@@H]3CC[C@]12C | 1.1 | 12.5 | 49.5 | > 100 | 10.6 | 
CC(=O)O[C@H]1CC[C@]2(C)[C@H]3C[C@@H](OC(C)=O)[C@@H]4[C@@H]([C@](C)(O)CCCC(C)(C)O)CC[C@@]4(C)[C@]3(C)CC[C@H]2C1(C)C | 25.3 | 14.8 | 43.4 | > 100 |  | 
CCCCCCCCCCCCCC(=O)O[C@H]1CC[C@]2(C)[C@H]3C[C@@H](O)[C@@H]4[C@@H]([C@](C)(O)CCCC(C)(C)O)CC[C@@]4(C)[C@]3(C)CC[C@H]2C1(C)C | > 100 | > 100 | > 100 | > 100 |  | 
CCCCC(=O)O[C@H]1CC[C@]2(C)[C@H]3C[C@@H](O)[C@@H]4[C@@H]([C@](C)(O)CCCC(C)(C)O)CC[C@@]4(C)[C@]3(C)CC[C@H]2C1(C)C | > 50 | > 50 | > 50 | > 100 |  | 
CC(C)(O)CCC[C@@](C)(O)[C@H]1CC[C@]2(C)[C@@H]1[C@H](O)C[C@@H]1[C@@]3(C)CC[C@H](OC=O)C(C)(C)[C@@H]3CC[C@]12C | 11.5 | 39.2 | > 50 | > 100 |  | Dose-dependent effect
CCCCCCC(=O)O[C@@H]1C[C@@H]2[C@@]3(C)CC[C@H](O)C(C)(C)[C@@H]3CC[C@@]2(C)[C@]2(C)CC[C@H]([C@](C)(O)CCCC(C)(C)O)[C@@H]12 | 16.3 | 16.5 | 48.1 | > 100 |  | 
CC(C)(O)CCC[C@@](C)(O)[C@H]1CC[C@]2(C)[C@@H]1[C@H](OC=O)C[C@@H]1[C@@]3(C)CC[C@H](O)C(C)(C)[C@@H]3CC[C@]12C | 11.6 | 15.9 | 49.6 | > 100 | 15.1 | 
CCCCCCCCC(=O)O[C@H]1CC[C@]2(C)[C@H]3C[C@@H](O)[C@@H]4[C@@H]([C@](C)(O)CCCC(C)(C)O)CC[C@@]4(C)[C@]3(C)CC[C@H]2C1(C)C | > 50 | > 50 | > 50 | > 100 |  | 
CCCCCCCCCCCCCCCC(=O)O[C@H]1CC[C@]2(C)[C@H]3C[C@@H](O)[C@@H]4[C@@H]([C@](C)(O)CCCC(C)(C)O)CC[C@@]4(C)[C@]3(C)CC[C@H]2C1(C)C | > 100 | > 100 | > 100 | > 100 |  | 
CCCCCCCCCCCCCCCCCC(=O)O[C@H]1CC[C@]2(C)[C@H]3C[C@@H](O)[C@@H]4[C@@H]([C@](C)(O)CCCC(C)(C)O)CC[C@@]4(C)[C@]3(C)CC[C@H]2C1(C)C | > 100 | > 100 | > 100 | > 100 |  | 
CC(=O)O[C@@H]1C[C@@H]2[C@@]3(C)CC[C@H](O)C(C)(C)[C@@H]3CC[C@@]2(C)[C@]2(C)CC[C@H]([C@](C)(O)CCCC(C)(C)O)[C@@H]12 | 15.1 | 10.4 | 37.5 | > 100 | 13.2 | 
CCCCCCCCCCCCCCCC(=O)O[C@@H]1C[C@@H]2[C@@]3(C)CC[C@H](O)C(C)(C)[C@@H]3CC[C@@]2(C)[C@]2(C)CC[C@H]([C@](C)(O)CCCC(C)(C)O)[C@@H]12 | > 50 | > 50 | > 100 | > 100 |  | 
